{"source": "patent EP1285920A1", "about": "“C10 Ester sustituted taxanes as antitumor agents” (Florida State University Research Foundation, Inc., priority 2001, dated 2003)", "key": {"MX-1 carcinoma": {"test_system": "MX-1 carcinoma", "in_short": "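Mice dosed with a single i.v. bolus (qd x 1) at each compound's MTD, formulated in 5% ethanol, 5% Cremophor, 90% isotonic saline. Study ended Day 60; complete response = tumor not palpable at study end.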"}, "HCT116 carcinoma": {"test_system": "HCT116 carcinoma", "conditions": "i.v. qd x 1 at MTD, Day 60", "in_short": "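Mice bearing HCT116 tumours received a single i.v. maximum tolerated dose per compound, formulated in 5% ethanol, 5% Cremophor, 90% isotonic saline. Study ended on Day 60; complete response meant no palpable tumour at study end.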"}, "SKMES lung carcinoma": {"test_system": "SKMES lung carcinoma", "assay": "In vivo evaluation of compound 0503 against SKMES human lung carcinoma xenograft, i.v. dose range (Example 20)", "conditions": "for % Total Response: complete or partial responses among evaluable animals; for MDS (n): mean days of survival until neoplasm reached 2.0 g, 6 mice, terminated Day 60; for survival extension / MDS: other mice; for MDS: tumor 2.0 g", "description": "The antitumor compound was prepared in a vehicle of 10% ethanol and 90% Liposyn III in the manner as described for Emulsion 3 of Example 9.\nTreatment groups consisted of: vehicle only (Group 1), and antitumor compound 0503 (dosages of 104 mg/kg, 72.8 mg/kg, 41.6 mg/kg, and 10.4 mg/kg; Groups 2-5, respectively)."}, "SK-MES carcinoma": {"test_system": "SK-MES carcinoma", "assay": "In vivo evaluation against SK-MES human lung carcinoma xenograft (i.v., Example 11)", "description": "Antitumor compounds were formulated for an i.v. dosing regime prepared in the following vehicle: 10% ethanol, 10% Cremophor and 80% isotonic saline.\nVehicle control animals were dosed twice intravenously with half the total volume being given separated by one hour. The study was terminated on Day 60.\nA complete response is obtained if the tumor is not palpable at the end of the study.\nA tumor scoring system was designed to provide a more quantitative ranking of efficacy (therapeutic potential) among the antitumor agents evaluated against the different human solid tumor xenografts. Each mouse in a study was given a score of from 1 to 10 at the end of the study. The scores can be summarized as follows:\nThe individual score for each mouse was averaged into a mean score for each treatment group. […]"}, "[1]": {"conditions": "10.4 mg/kg, single IV bolus Day 1"}, "[2]": {"conditions": "10.4 mg/kg, single IV bolus Day 1, number of mice of 6, Day 60"}, "[3]": {"conditions": "41.6 mg/kg, single IV bolus Day 1"}, "[4]": {"conditions": "41.6 mg/kg, single IV bolus Day 1, number of mice of 6, Day 60"}, "[5]": {"conditions": "72.8 mg/kg, single IV bolus Day 1"}, "[6]": {"conditions": "72.8 mg/kg, single IV bolus Day 1, number of mice of 6, Day 60"}, "[7]": {"conditions": "104 mg/kg, single IV bolus Day 1"}, "[8]": {"conditions": "104 mg/kg, single IV bolus Day 1, number of mice of 6, Day 60"}, "[9]": {"conditions": "SKMES, 72.8 mg/kg single IV bolus (Group 3)"}, "[10]": {"conditions": "SKMES, 72.8 mg/kg single IV bolus (Group 3), six mice"}, "[11]": {"conditions": "SKMES, 104 mg/kg single IV bolus (Group 2)"}}, "data": [{"molecule": "CCC(=O)O[C@H]1C(=O)[C@@]2(C)[C@H]([C@H](OC(=O)c3ccccc3)[C@]3(O)C[C@H](OC(=O)[C@H](O)[C@@H](NC(=O)OC(C)(C)C)c4ccccn4)C(C)=C1C3(C)C)[C@]1(OC(C)=O)CO[C@@H]1C[C@@H]2O", "note": "[Compound 0503]", "values": [{"measurement": "treated animals with durable complete responses and partial responses", "setting": "MX-1 carcinoma; MX-1, single i.v. MTD", "result": 100, "unit": "%"}, {"measurement": "Mean Score", "setting": "MX-1 carcinoma; i.v. qd x 1 at MTD, 6 mice/group, Day 60, doses as in E17", "result": "9.7 ± 0.2"}, {"measurement": "Stable Disease", "setting": "MX-1 carcinoma; number of 6 mice, tumor did not reach 2.0 g by end of study, i.v. qd x 1 at MTD, Day 60, doses as in E17", "result": 0}, {"measurement": "Complete Response", "setting": "MX-1 carcinoma; number of 6 mice, tumor not palpable at end of study, i.v. qd x 1 at MTD, Day 60, doses as in E17", "result": 4}, {"measurement": "Partial Response", "setting": "MX-1 carcinoma; number of 6 mice, tumor smaller than on Day 1, i.v. qd x 1 at MTD, Day 60, doses as in E17", "result": 2}, {"measurement": "Survivors", "setting": "MX-1 carcinoma; number of 6 mice, i.v. qd x 1 at MTD, Day 60, doses as in E17", "result": 6}, {"measurement": "Toxic Deaths", "setting": "MX-1 carcinoma; number of 6 mice, i.v. qd x 1 at MTD, Day 60, mg/kg: Taxol 36 (split dose), 0503 72.6, 0536 49, 0663 159, 0670 123, 0687 159, 0706 108, 0908 159, 0947 76.9, 0951 72.6, 0983 67.4, 0999 49, 1003 49, 1011 108", "result": 0}, {"measurement": "Mean Score", "setting": "HCT116 carcinoma; 5 mice/group, doses as in E3", "result": "9.2 ± 0.2"}, {"measurement": "Stable Disease", "setting": "HCT116 carcinoma; number of 5 mice, tumor did not reach 2.0 g by end of study, doses as in E3", "result": 0}, {"measurement": "Complete Response", "setting": "HCT116 carcinoma; number of 5 mice, tumor not palpable at end of study, doses as in E3", "result": 1}, {"measurement": "Partial Response", "setting": "HCT116 carcinoma; number of 5 mice, tumor smaller than on Day 1, doses as in E3", "result": 4}, {"measurement": "Survivors", "setting": "HCT116 carcinoma; number of 5 mice, doses as in E3", "result": 5}, {"measurement": "Toxic Deaths", "setting": "HCT116 carcinoma; number of 5 mice, mg/kg: Taxol 36 (split doses), 0503 72.6, 0536 49, 0663 159, 0670 123, 0687 159, 0706 108, 0908 159, 0947 76.9, 0951 72.6, 0983 72.6, 0999 49, 1003 49, 1011 108", "result": 0}, {"measurement": "% Total Response", "setting": "SKMES lung carcinoma; [1]", "result": 0, "unit": "%"}, {"measurement": "MDS (n)", "setting": "SKMES lung carcinoma; [1]", "result": "26.0 ± 2.5 (6) days"}, {"measurement": "Toxic Deaths", "setting": "SKMES lung carcinoma; 10.4 mg/kg, single IV bolus Day 1, number of mice of 6", "result": 0}, {"measurement": "Partial Response", "setting": "SKMES lung carcinoma; [2]", "result": 0}, {"measurement": "Stable Disease", "setting": "SKMES lung carcinoma; [2]", "result": 0}, {"measurement": "Survivors", "setting": "SKMES lung carcinoma; [2]", "result": 0}, {"measurement": "% Total Response", "setting": "SKMES lung carcinoma; [3]", "result": 0, "unit": "%"}, {"measurement": "MDS (n)", "setting": "SKMES lung carcinoma; [3]", "result": "33.8 ± 3.4 (5) days"}, {"measurement": "Toxic Deaths", "setting": "SKMES lung carcinoma; 41.6 mg/kg, single IV bolus Day 1, number of mice of 6", "result": 0}, {"measurement": "Partial Response", "setting": "SKMES lung carcinoma; [4]", "result": 0}, {"measurement": "Stable Disease", "setting": "SKMES lung carcinoma; [4]", "result": 1}, {"measurement": "Survivors", "setting": "SKMES lung carcinoma; [4]", "result": 1}, {"measurement": "% Total Response", "setting": "SKMES lung carcinoma; [5]", "result": 33.3, "unit": "%"}, {"measurement": "MDS (n)", "setting": "SKMES lung carcinoma; [5]", "result": "37.4 ± 5.2 (4) days"}, {"measurement": "Toxic Deaths", "setting": "SKMES lung carcinoma; 72.8 mg/kg, single IV bolus Day 1, number of mice of 6", "result": 0}, {"measurement": "Partial Response", "setting": "SKMES lung carcinoma; [6]", "result": 1}, {"measurement": "Stable Disease", "setting": "SKMES lung carcinoma; [6]", "result": 0}, {"measurement": "Survivors", "setting": "SKMES lung carcinoma; [6]", "result": 2}, {"measurement": "% Total Response", "setting": "SKMES lung carcinoma; [7]", "result": 50.0, "unit": "%"}, {"measurement": "MDS (n)", "setting": "SKMES lung carcinoma; [7]", "result": "46.6 ± 3.2 (3) days"}, {"measurement": "Toxic Deaths", "setting": "SKMES lung carcinoma; 104 mg/kg, single IV bolus Day 1, number of mice of 6", "result": 0}, {"measurement": "Partial Response", "setting": "SKMES lung carcinoma; [8]", "result": 0}, {"measurement": "Stable Disease", "setting": "SKMES lung carcinoma; [8]", "result": 0}, {"measurement": "Survivors", "setting": "SKMES lung carcinoma; [8]", "result": 3}, {"measurement": "survival extension", "setting": "SKMES lung carcinoma; [9]", "result": 114, "unit": "%"}, {"measurement": "MDS", "setting": "SKMES lung carcinoma; [9]", "result": 37.4, "unit": "days"}, {"measurement": "Complete Response", "setting": "SKMES lung carcinoma; [10]", "result": "One"}, {"measurement": "Partial Response", "setting": "SKMES lung carcinoma; [10]", "result": "one"}, {"measurement": "complete tumor regressions", "setting": "SKMES lung carcinoma; SKMES, 104 mg/kg single IV bolus (Group 2), 10% ethanol, 90% Liposyn III, six mice", "result": "Three"}, {"measurement": "survival extension", "setting": "SKMES lung carcinoma; [11]", "result": 167, "unit": "%"}, {"measurement": "MDS", "setting": "SKMES lung carcinoma; [11]", "result": 46.6, "unit": "days"}, {"measurement": "antitumor activity", "setting": "SK-MES carcinoma; SK-MES, 0503 72.1 mg/kg i.v.", "result": "highly active"}, {"measurement": "MDS (n)", "setting": "SK-MES carcinoma; SK-MES, i.v. MTD in two half doses one hour apart, qd x 1, Taxol 36 mg/kg, 0503 72.1 mg/kg, days until tumor 1.5 g, ended Day 60", "result": "46.0 ± 0(2) days"}, {"measurement": "Toxic Deaths", "setting": "SK-MES carcinoma; SK-MES, i.v. split dose qd x 1, six mice per group", "result": 0}, {"measurement": "Survivors", "setting": "SK-MES carcinoma; SK-MES, i.v. split dose qd x 1, six mice per group, Day 60", "result": 4}, {"measurement": "Stable Disease", "setting": "SK-MES carcinoma; SK-MES, i.v. split dose qd x 1, tumor below 1.5 g at termination", "result": 1}, {"measurement": "Partial Response", "setting": "SK-MES carcinoma; SK-MES, i.v. split dose qd x 1, tumor smaller than on Day 1", "result": 0}, {"measurement": "Mean Score", "setting": "SK-MES carcinoma; SK-MES, tumor score 1 to 10 per mouse, group mean", "result": "6.5 ± 1.6"}, {"measurement": "tolerability", "setting": "SK-MES carcinoma; mouse, in vivo, iv, 72.1 mg/kg", "result": "well tolerated"}]}]}
